Measured values taken from ChEMBL document CHEMBL1201861, “Genomics of Drug Sensitity in Cancer screening data, Wellcome Trust Sanger Institute”.
pIC50: −log10 of the molar value.

Experiments:
Type in all cases: functional, cell-based
NCI-H2227 = experiment: cells; conditions: Homo sapiens;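 note: growth inhibition of the human cell line, read out with a cell viability assay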
Description: SANGER: Inhibition of human NCI-H2227 cell growth in a cell viability assay.

Calu-1 = experiment: SANGER: Inhibition of human Calu-1 cell growth in a cell viability assay.
Caov-4 = experiment: cells; conditions: Homo sapiens
Description: SANGER: Inhibition of human Caov-4 cell growth in a cell viability assay.

ECC12 = experiment: cells; conditions: Homo sapiens
Description: SANGER: Inhibition of human ECC12 cell growth in a cell viability assay.

COLO 205 = experiment: cells; conditions: Homo sapiens
Description: SANGER: Inhibition of human COLO-205 cell growth in a cell viability assay.

Caov-3 cell line = experiment: cells; conditions: Homo sapiens;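 note: cell growth inhibition read out by a viability assay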
Description: SANGER: Inhibition of human Caov-3 cell growth in a cell viability assay.

MDA-MB-468 = experiment: cells; conditions: Homo sapiens
Description: SANGER: Inhibition of human MDA-MB-468 cell growth in a cell viability assay.

NCI-H838 = experiment: cells; conditions: Homo sapiens;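 note: growth inhibition of human NCI-H838 cells, read out by a cell viability assay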
Description: SANGER: Inhibition of human NCI-H838 cell growth in a cell viability assay.

EW-7 = experiment: SANGER: Inhibition of human EW-7 cell growth in a cell viability assay.
NCI-H1734 = experiment: cells; conditions: Homo sapiens;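 note: growth inhibition of human NCI-H1734 cells, read out with a cell viability assay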
Description: SANGER: Inhibition of human NCI-H1734 cell growth in a cell viability assay.

HCC1143 = experiment: cells; conditions: Homo sapiens;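 note: growth inhibition of human HCC1143 cells, read out with a cell viability assay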
Description: SANGER: Inhibition of human HCC1143 cell growth in a cell viability assay.

MES-SA = experiment: cells; conditions: Homo sapiens;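 note: growth inhibition of human MES-SA cells, read out with a cell viability assay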
Description: SANGER: Inhibition of human MES-SA cell growth in a cell viability assay.

RT-4 = experiment: SANGER: Inhibition of human RT4 cell growth in a cell viability assay.
EFE-184 = experiment: cells; conditions: Homo sapiens
Description: SANGER: Inhibition of human EFE-184 cell growth in a cell viability assay.

SNU-475 = experiment: cells; conditions: Homo sapiens
Description: SANGER: Inhibition of human SNU-475 cell growth in a cell viability assay.

A549 = experiment: cells; conditions: Homo sapiens;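 note: growth inhibition of A549 cells, read out with a cell viability assay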
Description: SANGER: Inhibition of human A549 cell growth in a cell viability assay.

EPLC-272H = experiment: cells; conditions: Homo sapiens
Description: SANGER: Inhibition of human EPLC-272H cell growth in a cell viability assay.

YH-13 = experiment: cells; conditions: Homo sapiens;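 note: cell viability readout of growth suppression in the human YH-13 cell line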
Description: SANGER: Inhibition of human YH-13 cell growth in a cell viability assay.

TGBC11TKB = experiment: cells; conditions: Homo sapiens;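 note: growth inhibition of human TGBC11TKB cells, measured by a cell viability assay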
Description: SANGER: Inhibition of human TGBC11TKB cell growth in a cell viability assay.

SW900 = experiment: cells; conditions: Homo sapiens;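 note: IC50 is the concentration that inhibits SW900 cell growth, measured by a cell viability assay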
Description: SANGER: Inhibition of human SW900 cell growth in a cell viability assay.

NCI-H2291 = experiment: cells; conditions: Homo sapiens
Description: SANGER: Inhibition of human NCI-H2291 cell growth in a cell viability assay.

NBsusSR = experiment: cells; conditions: Homo sapiens;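 note: growth inhibition of the human cell line, read out with a cell viability assay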
Description: SANGER: Inhibition of human NBsusSR cell growth in a cell viability assay.

H9 = experiment: cells; conditions: Homo sapiens
Description: SANGER: Inhibition of human H9 cell growth in a cell viability assay.

NCI-H1666 = experiment: cells; conditions: Homo sapiens;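 note: growth inhibition of the cell line, read out with a cell viability assay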
Description: SANGER: Inhibition of human NCI-H1666 cell growth in a cell viability assay.

LU-135 = experiment: cells; conditions: Homo sapiens
Description: SANGER: Inhibition of human LU-135 cell growth in a cell viability assay.

RH-18 = experiment: cells; conditions: Homo sapiens, Rh18;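 note: growth inhibition of human RH-18 cells, read out with a cell viability assay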
Description: SANGER: Inhibition of human RH-18 cell growth in a cell viability assay.

BALL-1 = experiment: cells; conditions: Homo sapiens;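 note: growth inhibition of BALL-1 cells, read out with a cell viability assay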
Description: SANGER: Inhibition of human BALL-1 cell growth in a cell viability assay.

SW 1116 = experiment: cells; conditions: Homo sapiens;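 note: growth inhibition of SW1116 cells, read out with a cell viability assay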
Description: SANGER: Inhibition of human SW1116 cell growth in a cell viability assay.

NCI-H1048 = experiment: cells; conditions: Homo sapiens;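 note: growth inhibition of human NCI-H1048 cells, read out with a cell viability assay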
Description: SANGER: Inhibition of human NCI-H1048 cell growth in a cell viability assay.

NCI-H1975 = experiment: cells; conditions: Homo sapiens
Description: SANGER: Inhibition of human NCI-H1975 cell growth in a cell viability assay.

ECC10 = experiment: cells; conditions: Homo sapiens;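 note: growth inhibition of ECC10 cells, read out by a cell viability assay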
Description: SANGER: Inhibition of human ECC10 cell growth in a cell viability assay.

NCI-H2107 = experiment: SANGER: Inhibition of human NCI-H2107 cell growth in a cell viability assay.
CRO-AP2 = experiment: SANGER: Inhibition of human CRO-AP2 cell growth in a cell viability assay.
NCI-H128 = experiment: SANGER: Inhibition of human NCI-H128 cell growth in a cell viability assay.; conditions: Homo sapiens, NCI-H128
CP67-MEL = experiment: SANGER: Inhibition of human CP67-MEL cell growth in a cell viability assay.
KP-N-RT-BM-1 = experiment: SANGER: Inhibition of human KP-N-RT-BM-1 cell growth in a cell viability assay.

Question: How did the pIC50 (NCI-H2227) turn out when `COC(=O)[C@H](CCSC)NC(=O)c1ccc(NC[C@@H](N)CS)cc1-c1ccccc1` was run?
Answer: < 5.99

Question: What about the pIC50 (Calu-1) of the same compound?
Answer: < 5.99

Question: And the pIC50 (Caov-4)?
Answer: < 5.99

Question: What about the pIC50 (ECC12) of the same compound?
Answer: < 5.99

Question: What about the pIC50 (COLO 205) of the same compound?
Answer: < 5.99

Question: And the pIC50 (Caov-3 cell line)?
Answer: < 5.99

Question: What about the pIC50 (MDA-MB-468) of the same compound?
Answer: < 5.99

Question: What about the pIC50 (NCI-H838) of the same compound?
Answer: < 5.99

Question: What about the pIC50 (EW-7) of the same compound?
Answer: < 5.99

Question: And the pIC50 (NCI-H1734)?
Answer: < 5.99

Question: What about the pIC50 (HCC1143) of the same compound?
Answer: < 5.99

Question: And the pIC50 (MES-SA)?
Answer: < 5.99

Question: What about the pIC50 (RT-4) of the same compound?
Answer: < 5.99

Question: What about the pIC50 (EFE-184) of the same compound?
Answer: < 5.99

Question: And the pIC50 (SNU-475)?
Answer: < 5.99

Question: What does the source list for `CN(NC(=O)CC(=O)NN(C)C(=S)c1ccccc1)C(=S)c1ccccc1` [ELESCLOMOL]?
Answer: pIC50 (A549): 7.71; pIC50 (EPLC-272H): 7.54; pIC50 (YH-13): 7.62; pIC50 (TGBC11TKB): < 6.70; pIC50 (SW900): 7.21; pIC50 (NCI-H2291): < 6.70; pIC50 (NBsusSR): 8.50; pIC50 (H9): 7.24; pIC50 (NCI-H1666): < 6.70; pIC50 (LU-135): < 6.70; pIC50 (RH-18): 7.13; pIC50 (BALL-1): < 6.70; pIC50 (SW 1116): < 6.70; pIC50 (NCI-H1048): 7.74; pIC50 (NCI-H1975): < 6.70; pIC50 (ECC10): < 6.70

Question: With `Nc1ccccc1NC(=O)c1ccc(CNC(=O)OCc2cccnc2)cc1` [ENTINOSTAT] as the compound, how does the pIC50 (NCI-H2227) read?
Answer: 5.52

Question: And the pIC50 (NCI-H2107)?
Answer: 5.87

Question: And the pIC50 (ECC12)?
Answer: 6.15

Question: And the pIC50 (CRO-AP2)?
Answer: 6.77

Question: What about the pIC50 (NCI-H128) of the same compound?
Answer: < 5.30

Question: How did the pIC50 (NCI-H2107) turn out when `Cc1ccc(NC(=O)c2ccc(CN3CCN(C)CC3)cc2)cc1Nc1nccc(-c2cccnc2)n1` [IMATINIB] was run?
Answer: < 5.70

Question: And the pIC50 (CP67-MEL)?
Answer: < 5.70

Question: What about the pIC50 (CRO-AP2) of the same compound?
Answer: < 5.70

Question: And the pIC50 (NCI-H128)?
Answer: < 5.70

Question: And the pIC50 (KP-N-RT-BM-1)?
Answer: < 5.70

Question: Which results are given for `Cc1ccc(C(=O)Nc2ccc(CN3CCN(C)CC3)c(C(F)(F)F)c2)cc1C#Cc1cnc2cccnn12` [PONATINIB]?
Answer: pIC50 (NCI-H2227): < 6.29; pIC50 (Calu-1): < 6.29; pIC50 (Caov-4): < 6.29; pIC50 (ECC12): < 6.29; pIC50 (COLO 205): < 6.29; pIC50 (Caov-3 cell line): < 6.29; pIC50 (MDA-MB-468): < 6.29; pIC50 (NCI-H838): < 6.29; pIC50 (EW-7): < 6.29; pIC50 (NCI-H1734): < 6.29; pIC50 (HCC1143): < 6.29; pIC50 (MES-SA): 6.62; pIC50 (RT-4): 6.35; pIC50 (EFE-184): < 6.29; pIC50 (SNU-475): < 6.29

Question: What does the source list for `CC1=C(/C=C/C(C)=C/C=C/C(C)=C/C(=O)O)C(C)(C)CCC1` [TRETINOIN]?
Answer: pIC50 (A549): < 5.00; pIC50 (EPLC-272H): < 5.00; pIC50 (YH-13): < 5.00; pIC50 (TGBC11TKB): < 5.00; pIC50 (SW900): < 5.00; pIC50 (NCI-H2291): < 5.00; pIC50 (NBsusSR): 5.84; pIC50 (NCI-H1666): < 5.00; pIC50 (LU-135): < 5.00; pIC50 (RH-18): < 5.00; pIC50 (BALL-1): < 5.00; pIC50 (SW 1116): < 5.00; pIC50 (NCI-H1048): < 5.00; pIC50 (NCI-H1975): < 5.00; pIC50 (ECC10): 5.62

Question: How did the pIC50 (A549) turn out when `NC(=O)c1ccc(N(C(N)=O)c2c(F)cccc2F)nc1-c1ccc(F)cc1F` [VX-702] was run?
Answer: < 5.70

Question: And the pIC50 (EPLC-272H)?
Answer: < 5.70

Question: And the pIC50 (YH-13)?
Answer: < 5.70

Question: And the pIC50 (TGBC11TKB)?
Answer: < 5.70

Question: And the pIC50 (SW900)?
Answer: < 5.70

Question: What about the pIC50 (NCI-H2291) of the same compound?
Answer: < 5.70

Question: What about the pIC50 (NBsusSR) of the same compound?
Answer: < 5.70

Question: What about the pIC50 (NCI-H1666) of the same compound?
Answer: < 5.70

Question: And the pIC50 (LU-135)?
Answer: < 5.70

Question: What about the pIC50 (RH-18) of the same compound?
Answer: < 5.70

Question: And the pIC50 (BALL-1)?
Answer: < 5.70

Question: And the pIC50 (SW 1116)?
Answer: < 5.70

Question: What about the pIC50 (NCI-H1048) of the same compound?
Answer: < 5.70

Question: What about the pIC50 (NCI-H1975) of the same compound?
Answer: < 5.70

Question: And the pIC50 (ECC10)?
Answer: 6.18
